Experimental data as given in EP1090023B1 (GLAXO GROUP LIMITED, priority 1998, dated 1999).

What was measured:
Assay type in all cases: cell-based
adenosine 1 = biological target: T1, adenosine 1 (Homo sapiens, UniProt P30542); experiment: Agonist activity against adenosine receptor subtypes, CHO cells with cAMP response element/SPAP reporter (forskolin-enhanced cAMP); conditions: ratio to EC50 of NECA; transfected CHO cells; effect on forskolin-enhanced cAMP via SPAP
T1 sequence (P30542 1-326): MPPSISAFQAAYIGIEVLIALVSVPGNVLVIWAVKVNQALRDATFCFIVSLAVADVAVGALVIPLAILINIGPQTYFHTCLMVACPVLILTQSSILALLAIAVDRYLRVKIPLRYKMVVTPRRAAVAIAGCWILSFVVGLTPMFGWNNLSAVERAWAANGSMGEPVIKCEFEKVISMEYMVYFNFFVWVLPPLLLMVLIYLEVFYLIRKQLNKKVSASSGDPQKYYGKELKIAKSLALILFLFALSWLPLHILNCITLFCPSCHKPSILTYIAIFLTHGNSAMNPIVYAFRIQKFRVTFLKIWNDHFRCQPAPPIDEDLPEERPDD
Method: (§1) Compounds of the invention were tested for in vitro and in vivo biological activity in accordance with the following screens: • (1) Agonist activity against adenosine 2a, adenosine 1 and adenosine 3 receptor subtypes.
(§2) Agonist selectivity of compounds against other human adenosine receptors was determined using Chinese hamster ovary (CHO) cells transfected with the gene for the relevant human adenosine receptor following a method based on that of Castanon and Spevak, 1994 . The CHO cells were also transfected with cyclic AMP response elements promoting the gene for secreted placental alkaline phosphatase (SPAP) (Wood, 1995). The effect of test compounds was determined by their effects on basal levels of cAMP (A2a) or on forskolin-enhanced cAMP (A1 and A3) as reflected by changes in levels of SPAP. EC50 values for compounds were then determined as a ratio to that of the non-selective agonist N-ethyl carboxamide adenosine (NECA).

adenosine 3 = biological target: T2, adenosine 3 (Homo sapiens, UniProt P0DMS8); experiment: as above; conditions: ratio to EC50 of NECA; transfected CHO cells; effect on forskolin-enhanced cAMP via SPAP
T2 sequence (P0DMS8 1-318): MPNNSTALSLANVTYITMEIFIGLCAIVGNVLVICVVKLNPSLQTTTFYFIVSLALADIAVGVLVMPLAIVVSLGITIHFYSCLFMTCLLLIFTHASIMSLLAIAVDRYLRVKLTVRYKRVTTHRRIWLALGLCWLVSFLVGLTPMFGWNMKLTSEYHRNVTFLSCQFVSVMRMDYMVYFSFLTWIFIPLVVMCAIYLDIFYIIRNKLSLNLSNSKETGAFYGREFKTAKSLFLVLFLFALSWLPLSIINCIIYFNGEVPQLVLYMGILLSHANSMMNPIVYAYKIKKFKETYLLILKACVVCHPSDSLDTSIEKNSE
Method: as §1, §2

adenosine 2a = adenosine 2a (Homo sapiens, UniProt P29274); experiment: Agonist activity against adenosine receptor subtypes, CHO cells with cAMP response element/SPAP reporter (basal cAMP); conditions: ratio to EC50 of NECA; transfected CHO cells; effect on basal cAMP via SPAP
adenosine 2a, sequence (P29274 whole entry): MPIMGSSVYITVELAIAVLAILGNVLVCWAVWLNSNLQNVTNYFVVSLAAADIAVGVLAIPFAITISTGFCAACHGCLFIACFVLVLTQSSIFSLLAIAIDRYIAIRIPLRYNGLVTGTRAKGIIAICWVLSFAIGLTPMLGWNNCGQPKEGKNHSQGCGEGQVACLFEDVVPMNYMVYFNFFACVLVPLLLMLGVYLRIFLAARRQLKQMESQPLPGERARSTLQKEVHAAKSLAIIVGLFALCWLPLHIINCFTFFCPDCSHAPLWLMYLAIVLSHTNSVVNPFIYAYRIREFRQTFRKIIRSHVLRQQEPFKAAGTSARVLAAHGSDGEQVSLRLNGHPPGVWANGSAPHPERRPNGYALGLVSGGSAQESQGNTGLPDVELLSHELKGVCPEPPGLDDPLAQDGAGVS
Method: as §1, §2

| A1 (EC50 values as a ratio of that of NECA) (adenosine 1) | A3 (EC50 values as a ratio of that of NECA) (adenosine 3) | A2a (EC50 values as a ratio of that of NECA) (adenosine 2a) | Structure (SMILES) |
| --- | --- | --- | --- |
| 432 | >162 | 5.57 | CCc1nnc([C@H]2O[C@@H](n3cnc4c(NCC(c5ccccc5)c5ccccc5)nc(N[C@@H]5CCNC5)nc43)[C@H](O)[C@@H]2O)o1.O=CO [Example 26, (2R,3R,4S,5S)-2-[6-(2,2-Diphenyl-ethylamino)-2-(pyrrolidin-3R-ylamino)-purin-9-yl]-5-(5-ethyl-[1,3,4]oxadiazol-2-yl)-tetrahydro-furan-3,4-diol formate] |
| >2147 | >284 | 30.7 | CCc1nc([C@H]2O[C@@H](n3cnc4c(NCC(c5ccccc5)c5ccccc5)nc(NCCNC(=N)N)nc43)[C@H](O)[C@@H]2O)no1.O=CO.O=CO [Example 29, N-(2-{6-(2,2-Diphenyl-ethylamino)-9-[5R-(5-ethyl-[1,2,4]oxadiazol-3-yl)-3R,4S-dihydroxy-tetrahydro-furan-2R-yl]-9H-purin-2-ylamino}-ethyl)-guanidine diformate] |
| 2948.1 | >206 | 13.27 | CCn1cnc(C2OC(n3cnc4c(NCC(c5ccccc5)c5ccccc5)nc(NC5CCC(N)CC5)nc43)C(O)C2O)n1.O=CO.O=CO [Example 30, (2R,3R,4S,5R)-2-[2-(trans-4-Amino-cyclohexylamino)-6-(2,2-diphenyl-ethylamino)-purin-9-yl]-5-(1-ethyl-1H-[1,2,4]triazol-3-yl)-tetrahydro-furan-3,4-diol diformate] |
| 1753.5 | >206 | 8.79 | CCn1cnc([C@H]2O[C@@H](n3cnc4c(NCC(c5ccccc5)c5ccccc5)nc(NCCc5cn(C)cn5)nc43)[C@H](O)[C@@H]2O)n1.O=CO.O=CO [Example 31, (2R,3R,4S,5R)-2-{6-(2,2-Diphenyl-ethylamino)-2-[2-(1-methyl-1H-imidazol-4-yl)-ethylamino]-purin-9-yl}-5-(1-ethyl-1H-[1,2,4]triazol-3-yl)-tetrahydro-furan-3,4-diol diformate] |
| 1217.4 | >206 | 11.85 | CCn1cnc([C@H]2O[C@@H](n3cnc4c(NCC(c5ccccc5)c5ccccc5)nc(NCCN5CCCCC5)nc43)[C@H](O)[C@@H]2O)n1.O=CO.O=CO [Example 32, (2R,3R,4S,5R)-2-[6-(2,2-Diphenyl-ethylamino)-2-(2-piperidin-1-yl-ethylamino)-purin-9-yl]-5-(1-ethyl-1H-[1,2,4]triazol-3-yl)-tetrahydro-furan-3,4-diol diformate] |
| 4999.7 | >206 | 34.25 | CCn1cnc([C@H]2O[C@@H](n3cnc4c(NCC(c5ccccc5)c5ccccc5)nc(NCCc5ccccn5)nc43)[C@H](O)[C@@H]2O)n1.O=CO.O=CO [Example 33, (2R,3R,4S,5R)-2-[6-(2,2-Diphenyl-ethylamino)-2-(2-pyridin-2-yl-ethylamino)-purin-9-yl]-5-(1-ethyl-1H-[1,2,4]triazol-3-yl)-tetrahydro-furan-3,4-diol diformate] |
| 1980.8 | >231 | 10.97 | CCn1cnc(C2OC(n3cnc4c(NCC(c5ccccc5)c5ccccc5)nc(NC5CCNC5)nc43)C(O)C2O)n1.O=CO.O=CO [Example 34, (2R,3R,4S,5R)-2-[6-(2,2-Diphenyl-ethylamino)-2-(pyrrolidin-3R-ylamino)-purin-9-yl]-5-(1-ethyl-1H-[1,2,4]triazol-3-yl)-tetrahydro-furan-3,4-diol diformate] |
| 365.6 | >173 | 45.64 | CCC(CC)Nc1nc(NCCN2CCCCC2)nc2c1ncn2C1OC(c2nnc(C3CC3)o2)C(O)C1O.O=CO.O=CO (stereo not drawn) [Example 38] |
| >=1067 | >173 | 129.5 | CCC(CC)Nc1nc(NC2CCCC2)nc2c1ncn2[C@@H]1O[C@H](c2nnc(C3CC3)o2)[C@@H](O)[C@H]1O.O=CO.O=CO [Example 39, (2R,3R,4S,5S)-2-[2-Cyclopentylamino-6-(1-ethyl-propylamino)-purin-9-yl]-5-(5-cyclopropyl-[1,3,4]oxadiazol-2-yl)-tetrahydro-furan-3,4-diol diformate] |

| Structure (SMILES) | A1 (EC50 values as a ratio of that of NECA) (adenosine 1) | A3 (EC50 values as a ratio of that of NECA) (adenosine 3) | A2a (EC50 values as a ratio of that of NECA) (adenosine 2a) |
| --- | --- | --- | --- |
| CCc1nnc([C@H]2O[C@@H](n3cnc4c(NCC(c5ccccc5)c5ccccc5)nc(NCCN5CCCCC5)nc43)[C@H](O)[C@@H]2O)o1.O=CO [Example 22, (2R,3R,4S,5S)-2-[6-(2,2-Diphenyl-ethylamino)-2-(2-piperidin-1-yl-ethylamino)-purin-9-yl]-5-(5-ethyl-[1,3,4]oxadiazol-2-yl)-tetrahydro-furan-3,4-diol formate] | 101.96 | >180 | 12.28 |
| CCc1nnc([C@H]2O[C@@H](n3cnc4c(NCC(c5ccccc5)c5ccccc5)nc(NCCN5CCOCC5)nc43)[C@H](O)[C@@H]2O)o1.O=CO [Example 23, (2R,3R,4S,5S)-2-[6-(2,2-Diphenyl-ethylamino)-2-(2-morpholin-4-yl-ethylamino)-purin-9-yl]-5-(5-ethyl-[1,3,4]oxadiazol-2-yl)-tetrahydro-furan-3,4-diol formate] | 101.96 | >180 | 6.16 |
| CCc1nnc([C@H]2O[C@@H](n3cnc4c(NCC(c5ccccc5)c5ccccc5)nc(NCCc5ccccn5)nc43)[C@H](O)[C@@H]2O)o1.O=CO [Example 24, (2R,3R,4S,5S)-2-[6-(2,2-Diphenyl-ethylamino)-2-(2-pyridin-2-yl-ethylamino)-purin-9-yl]-5-(5-ethyl-[1,3,4]oxadiazol-2-yl)-tetrahydro-furan-3,4-diol formate] | 390.97 | >175 | 6.04 |
| CCc1nnc([C@H]2O[C@@H](n3cnc4c(NCC(c5ccccc5)c5ccccc5)nc(N[C@H]5CC[C@H](N)CC5)nc43)[C@H](O)[C@@H]2O)o1.O=CO [Example 25, (2R,3R,4S,5S)-2-[2-(trans-4-Amino-cyclohexylamino)-6-(2,2-diphenyl-ethylamino)-purin-9-yl]-5-(5-ethyl-[1,3,4]oxadiazol-2-yl)-tetrahydro-furan-3,4-diol formate] | 398.28 | >136 | 4.81 |
| CCc1nnc([C@H]2O[C@@H](n3cnc4c(NCC(c5ccccc5)c5ccccc5)nc(NCCc5ccccn5)nc43)[C@H](O)[C@@H]2O)[nH]1.O=CO [Example 27, (2R,3R,4S,5R)-2-[6-(2,2-Diphenyl-ethylamino)-2-(2-pyridin-2-yl-ethylamino)-purin-9-yl]-5-(5-ethyl-4H-[1,2,4]triazol-3-yl)-tetrahydro-furan-3,4-diol formate] | 135.9 | >183 | 21.8 |
| CCC(CC)Nc1nc(NCCc2cn(C)cn2)nc2c1ncn2[C@@H]1O[C@H](c2nnc(C3CC3)o2)[C@@H](O)[C@H]1O.O=CO.O=CO [Example 37] | 581.9 | >173 | 6.39 |
| CCC(CC)Nc1nc(N[C@@H]2CCNC2)nc2c1ncn2[C@@H]1O[C@H](c2nnc(C3CC3)o2)[C@@H](O)[C@H]1O.O=CO.O=CO [Example 40, (2S,3S,4R,5R)-2-(5-Cyclopropyl-[1,3,4]oxadiazol-2-yl)-5-[6-(1-ethyl-propylamino)-2-(pyrrolidin-3R-ylamino)-purin-9-yl]-tetrahydro-furan-3,4-diol diformate] | 5084.2 | >173 | 56.86 |
